Several values for one entry are separate records, joined by “and”; a condition that tells them apart may be missing. Identical values can stand only once.
Columns and labels:
Assay type in all cases: in vivo
[1] = test system: rabbit eye (anterior chamber paracentesis); assay: Pupillary diameter measurement, rabbit paracentesis model; conditions: for Pupillary diameter T1: −180 min: 50 μl drops, −180 min (basal); for Pupillary diameter T1: −180 min / Pupillary diameter T2: −5 min / Pupillary diameter T3: +115 min: single eyes; for Pupillary diameter T2: −5 min: 5 min before the first paracentesis; for Pupillary diameter T3: +115 min: 5 min before the second paracentesis; for Pupillary diameter Mean Δ(T3 − T1): group mean, n=8 eyes
Protocol: (§1) Each rabbit was placed in a restraint device and tagged with the alphanumeric code. The formulations were instilled (50 μl) into the conjunctival sac of both eyes 180, 120, 90 and 30 min before the first paracentesis; then 15, 30, 90 min after the first paracentesis. To perform the first paracentesis the animals were anaesthetized by intravenous injection of 5 mg/kg Zoletil® (Virbac; 2.5 mg/kg tiletamine HCl and 2.5 mg/kg zolazepam HCl) and one drop of local anesthetic (Novesina®, Novartis) was administered to the eye. Anterior chamber paracentesis was performed with a 26 G needle attached to a tuberculin syringe; the needle was introduced into the anterior chamber through the cornea, taking care not to damage the tissues. Two hours after the first paracentesis, the animals were sacrificed with 0.4 ml Tanax® (Intervet International B.V.) and the second paracentesis was performed. About 100 μl of aqueous humor were removed at the second paracentesis. Aqueous humor was immediately split in four aliquots and stored at −80° C. until analysis. Then both eyes were enucleated and the iris-ciliary body was carefully excised, placed in polypropylene tubes, and stored at −80° C. until analysis.
The pupillary diameter of both eyes was measured with a Castroviejo caliper 180 min and 5 min before the first paracentesis and 5 min before the second paracentesis.

[2] = test system: rabbit eye (anterior chamber paracentesis); assay: Clinical evaluation by slit lamp (clinical score), rabbit paracentesis model; parameters: key to Clinical Score −180 min / Clinical Score −5 min / Clinical Score +115 min: 0=normal; 1=discrete dilatation of iris and conjunctival vessels; 2=moderate dilatation of iris and conjunctival vessels; 3=intense iridal hyperemia with flare in the anterior chamber; 4=intense iridal hyperemia with flare in the anterior chamber and presence of fibrinous exudates; conditions: for Clinical Score −5 min: 5 min before the first paracentesis; for Clinical Score −5 min / Clinical Score +115 min / Clinical Score −180 min: single eyes; for Clinical Score +115 min: 5 min before the second paracentesis
[3] = test system: Prostaglandin E2 (PGE2); assay: Prostaglandin E2 (PGE2) measurement in aqueous humor, rabbit paracentesis model; conditions: second paracentesis, group mean
Protocol: as §1
For the quantitative determination of PGE2 in the aqueous humor we used the PGE2 Immunoassay kit (R&D Systems; Cat.No. KGE004; Lot.No. 240010). Eleven microliters or 16 μl of aqueous humor were diluted to 110 μl or 160 μl with the calibrator diluent solution provided with the kit. One hundred microliters of samples and of standards were load into a 96-well plate and recorded in a plate layout. Samples were treated following the assay procedure described in the kit. A microplate reader (GDV, Italy; model DV 990 B/V6) set at 450 nm (wavelength correction at 540 nm) was used for making the calibration and analyzing the samples.

[4] = test system: protein in aqueous humor; assay: Protein measurement in aqueous humor, rabbit paracentesis model; conditions: for Protein levels in aqueous humor (raw data): samples collected at the second paracentesis, single eyes; for Protein levels in aqueous humor, Mean: second paracentesis, group mean
Protocol: as §1
For protein concentration determination in the aqueous humor we used the Protein Quantification Kit (Fluka; Cat.No. 77371; Lot.No. 1303129). Five microliters of aqueous humor were diluted to 100 μl with water. Twenty microliters of samples and of standards were load into a 96-well plate and recorded in a plate layout. Samples were treated following the assay procedure described in the kit. A microplate reader (GDV, Italy; model DV 990 B/V6) set at 670 nm was used for making the calibration and analyzing the samples.

[5] = test system: Leukocytes (PMN); assay: Leukocytes (PMN) measurement in aqueous humor, rabbit paracentesis model; conditions: for PMN numbers in aqueous humor, Mean: second paracentesis, group mean
Protocol: as §1
For the determination of the number of leukocytes we used a haemocytometer (Improved Neubauer Chamber; Bright-line, Hausser Scientific) and a Polyvar 2 microscope (Reichert-Jung).

[6] = test system: Myeloperoxidase (MPO); assay: Myeloperoxidase (MPO) activity in iris-ciliary body, rabbit paracentesis model; conditions: for MPO activity in iris-ciliary body, Mean / MPO activity in iris-ciliary body: samples collected after the second paracentesis; for MPO activity in iris-ciliary body, Mean: group mean; for Δ/min (mean of the slope of the line recorded every 15 sec for 5 min) / MPO activity in iris-ciliary body: individual eyes
Protocol: 3.9 g of NaH2PO4 2H2O were dissolved in a volumetric flask to 500 ml with water. The pH was adjusted to pH=6 with 3N NaOH.
0.5 g of hexa-decyl-trimethyl-ammonium bromide was dissolved in 100 ml phosphate buffer.
The solution was prepared freshly. Ten microliters of H2O2 (30 wt. %) were diluted to 1 ml with water (solution A). 7.5 mg o-dianisidine 2HCl was dissolved in 45 ml of phosphate buffer and 75 μl of solution A were added.
as §1
The activity of MPO was measured as previously described by Williams et al.[5] The iris-ciliary bodies were carefully dried, weighed and immersed in 1 ml of hexa-decyl-trimethyl-ammonium bromide solution. Then, the samples were sonicated for 10 sec on ice by a ultrasound homogenizer (HD 2070, Bandelin electronic), freeze-thawed three times, sonicated for 10 sec and centrifuged at 14,000 g for 10 min to remove cellular debris. An aliquot of the supernatant (40-200 μl) was diluted to 3 ml with the o-dianisidine 2HCl/H2O2 solution. The change in absorbance at 460 nm was continuously monitored for 5 min by a spectrophotometer (UV/Vis Spectrometer Lambda EZ 201; Perkin Elmer). The slope of the line (Δ/min) was determined for each sample and used to calculate the number of units of MPO in the tissue as follows:
Values were expressed as units of MPO/g of tissue.

[7] = 0.5% topical, +115 min, N=8 eyes

CCOC(=O)O[C@]1(C(=O)OCCl)CC[C@H]2[C@@H]3CCC4=CC(=O)C=C[C@]4(C)[C@H]3[C@@H](O)C[C@@]21C [loteprednol etabonate]
Pupillary diameter T1: −180 min ([1]; 0.5% topical, listed as LE): 6.0 mm and 6.5 mm
Pupillary diameter T2: −5 min ([1]; 0.5% topical, listed as LE): 6.0 mm and 6.5 mm
Pupillary diameter T3: +115 min ([1]; 0.5% topical, listed as LE): 4.5 mm and 5.0 mm and 5.5 mm and 6.0 mm
Pupillary diameter Mean Δ(T3 − T1) ([1]; 0.5% topical): −0.9 mm
Clinical Score −5 min ([2]; 0.5% topical): 0
Clinical Score +115 min ([2]; 0.5% topical, listed as LE): 2 and 1
Percentage of eyes with clinical score 1 [2, 7]: 75%
Percentage of eyes with clinical score 2 [2, 7]: 25%
Percentage of eyes with clinical score 0 ([2]; 0.5% topical, −5 min, N=8 eyes): 100%
Percentage of eyes with clinical score 0 ([2]; 0.5% topical, −180 min (basal), N=8 eyes): 100%
Clinical Score −180 min ([2]; 0.5% topical, −180 min (basal)): 0
Levels of PGE2 in aqueous humor, Mean ([3]; 0.5% topical): 0.672 ng/mL
Protein levels in aqueous humor (raw data) ([4]; 0.5% topical, listed as LE): 36.14 mg/mL and 39.10 mg/mL and 34.69 mg/mL and 26.10 mg/mL and 26.30 mg/mL and 28.16 mg/mL and 40.90 mg/mL and 39.85 mg/mL
Protein levels in aqueous humor, Mean ([4]; 0.5% topical): 33.905 mg/mL
PMN numbers in aqueous humor (raw data) ([5]; 0.5% topical, samples collected at the second paracentesis, single eyes, listed as LE): 40 number/μl and 20 number/μl and 30 number/μl
PMN numbers in aqueous humor, Mean ([5]; 0.5% topical): 28.333 number/μl
MPO activity in iris-ciliary body, Mean ([6]; 0.5% topical): 0.661 MPO Unit/g
Δ/min (mean of the slope of the line recorded every 15 sec for 5 min) ([6]; 0.5% treatment, 200 μl supernatant aliquot diluted to 3 ml, listed as LE): 0.026 and 0.053 and 0.067 and 0.055 and 0.076 and 0.096
MPO activity in iris-ciliary body ([6]; 0.5% treatment, listed as LE): 0.30 Unit/g and 0.51 Unit/g and 0.81 Unit/g and 0.60 Unit/g and 0.73 Unit/g and 1.01 Unit/g

CC(C(=O)O)c1ccc(-c2ccccc2)c(F)c1 (stereo not drawn) [flurbiprofen]
Pupillary diameter T1: −180 min ([1]; 0.03% topical, listed as F): 5.0 mm and 7.0 mm and 6.0 mm and 5.5 mm
Pupillary diameter T2: −5 min ([1]; 0.03% topical, listed as F): 6.0 mm and 6.5 mm and 7.0 mm and 5.5 mm
Pupillary diameter T3: +115 min ([1]; 0.03% topical, listed as F): 4.0 mm and 3.5 mm and 5.5 mm and 5.0 mm and 4.5 mm and 6.0 mm
Pupillary diameter Mean Δ(T3 − T1) ([1]; 0.03% topical): −0.9 mm
Clinical Score −5 min ([2]; 0.03% topical): 0
Clinical Score +115 min ([2]; 0.03% topical): 2
Percentage of eyes with clinical score 2 ([2]; 0.03% topical, +115 min, N=8 eyes): 100%
Percentage of eyes with clinical score 0 ([2]; 0.03% topical, −5 min, N=8 eyes): 100%
Percentage of eyes with clinical score 0 ([2]; 0.03% topical, −180 min (basal), N=8 eyes): 100%
Clinical Score −180 min ([2]; 0.03% topical, −180 min (basal)): 0
Levels of PGE2 in aqueous humor, Mean ([3]; 0.03% topical): 1.189 ng/mL
Protein levels in aqueous humor (raw data) ([4]; 0.03% topical, listed as F): 20.78 mg/mL and 28.80 mg/mL and 23.41 mg/mL and 20.21 mg/mL and 17.53 mg/mL and 15.12 mg/mL and 20.52 mg/mL
Protein levels in aqueous humor, Mean ([4]; 0.03% topical): 20.910 mg/mL
PMN numbers in aqueous humor, Mean ([5]; 0.03% topical): 30.000 number/μl
MPO activity in iris-ciliary body, Mean ([6]; 0.03% topical): 0.906 MPO Unit/g
Δ/min (mean of the slope of the line recorded every 15 sec for 5 min) ([6]; 0.03% treatment, 100 μl supernatant aliquot diluted to 3 ml, listed as F): 0.049 and 0.082 and 0.013 and 0.031 and 0.038 and 0.027 and 0.033 and 0.061
MPO activity in iris-ciliary body ([6]; 0.03% treatment, listed as F): 1.10 Unit/g and 1.70 Unit/g and 0.34 Unit/g and 0.75 Unit/g and 0.74 Unit/g and 0.63 Unit/g and 0.73 Unit/g and 1.27 Unit/g
